The source of these data is patent publication US20240269139A1, “COMPOUNDS FOR TARGETED PROTEIN DEGRADATION OF KINASES” (DANA-FARBER CANCER INSTITUTE, INC., priority 2020, published 2024).

Molecules are shown by their SMILES. Values joined by “and” are separate entries in the source; they are usually repeats but may differ in a detail not shown here. Identical values can stand only once. Like-named read-outs stand apart in the source and are kept apart here.

Experiment [1] deals with extended human kinome (kinase-like proteins) (Homo sapiens, UniProt Q9UIJ7). The experiment is described as follows: Whole cell quantitative proteomics: extended kinome hits.
The target of experiment [2] is extended human kinome (kinase-like proteins) (Homo sapiens, UniProt P27144). The description is as above.
For experiment [3], the target named is T1, extended human kinome (kinase-like proteins) (Homo sapiens, UniProt Q53R41).
T1 sequence (Q53R41 1-847): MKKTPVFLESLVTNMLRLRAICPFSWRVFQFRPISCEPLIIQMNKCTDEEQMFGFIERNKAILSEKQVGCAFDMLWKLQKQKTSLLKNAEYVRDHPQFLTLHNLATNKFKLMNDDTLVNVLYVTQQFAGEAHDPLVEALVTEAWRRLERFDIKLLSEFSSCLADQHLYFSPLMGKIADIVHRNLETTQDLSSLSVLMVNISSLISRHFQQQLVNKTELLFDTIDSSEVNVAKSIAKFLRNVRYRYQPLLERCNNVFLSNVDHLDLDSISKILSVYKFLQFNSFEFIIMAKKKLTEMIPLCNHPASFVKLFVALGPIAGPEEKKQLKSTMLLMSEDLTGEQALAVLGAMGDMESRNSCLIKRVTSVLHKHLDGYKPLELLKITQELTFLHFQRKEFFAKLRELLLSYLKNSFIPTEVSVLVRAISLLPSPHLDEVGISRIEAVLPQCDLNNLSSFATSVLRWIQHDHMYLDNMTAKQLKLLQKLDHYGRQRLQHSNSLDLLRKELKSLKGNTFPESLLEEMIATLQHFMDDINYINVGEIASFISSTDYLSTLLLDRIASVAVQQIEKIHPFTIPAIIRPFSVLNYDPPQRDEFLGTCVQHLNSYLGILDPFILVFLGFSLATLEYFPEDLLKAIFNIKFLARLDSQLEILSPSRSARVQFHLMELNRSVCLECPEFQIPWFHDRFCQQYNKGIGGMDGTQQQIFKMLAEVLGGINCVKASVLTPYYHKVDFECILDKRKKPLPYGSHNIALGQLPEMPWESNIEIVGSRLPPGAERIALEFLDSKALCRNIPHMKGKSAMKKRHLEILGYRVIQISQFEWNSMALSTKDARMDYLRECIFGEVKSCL
The description is as above.

In experiment [4] the target is T2, extended human kinome (kinase-like proteins) (Homo sapiens, UniProt Q7L8L6).
T2 sequence (Q7L8L6 28-764): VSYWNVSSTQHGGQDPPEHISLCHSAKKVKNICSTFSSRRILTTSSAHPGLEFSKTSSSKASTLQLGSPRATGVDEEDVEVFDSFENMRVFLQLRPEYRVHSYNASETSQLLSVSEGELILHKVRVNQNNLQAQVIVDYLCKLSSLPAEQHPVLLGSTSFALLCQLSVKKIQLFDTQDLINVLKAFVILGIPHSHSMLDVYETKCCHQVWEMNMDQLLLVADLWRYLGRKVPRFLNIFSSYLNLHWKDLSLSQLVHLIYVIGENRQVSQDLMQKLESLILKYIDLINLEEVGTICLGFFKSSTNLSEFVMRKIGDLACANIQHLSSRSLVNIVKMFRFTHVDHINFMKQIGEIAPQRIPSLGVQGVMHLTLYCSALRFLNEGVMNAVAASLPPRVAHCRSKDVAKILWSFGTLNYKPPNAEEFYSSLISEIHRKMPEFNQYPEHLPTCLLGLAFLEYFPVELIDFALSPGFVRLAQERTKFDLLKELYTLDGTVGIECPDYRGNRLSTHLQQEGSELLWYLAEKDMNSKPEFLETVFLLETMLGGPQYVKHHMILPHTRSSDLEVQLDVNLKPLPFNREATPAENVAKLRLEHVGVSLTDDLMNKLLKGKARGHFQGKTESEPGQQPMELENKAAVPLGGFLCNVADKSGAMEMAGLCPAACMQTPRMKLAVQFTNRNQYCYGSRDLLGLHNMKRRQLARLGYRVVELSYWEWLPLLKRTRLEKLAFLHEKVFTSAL
The description is as above. To be noted: Accession Q7L8L6.

The target of experiment [5] is extended human kinome (kinase-like proteins) (Homo sapiens, UniProt Q16875). Described as above. To be noted: Accession Q16875, experiment wp133.
Experiment [6] deals with protein kinases (human kinome) (Homo sapiens, UniProt Q14289). The experiment is classed as cell-based. As to conditions: for logFC: PTK2B (Q14289-1) protein abundance, degrader vs DMSO, down; for logFC PTK2B: accession Q14289-1, direction of change down.
Chain of protein kinases (human kinome) (Q14289 whole entry): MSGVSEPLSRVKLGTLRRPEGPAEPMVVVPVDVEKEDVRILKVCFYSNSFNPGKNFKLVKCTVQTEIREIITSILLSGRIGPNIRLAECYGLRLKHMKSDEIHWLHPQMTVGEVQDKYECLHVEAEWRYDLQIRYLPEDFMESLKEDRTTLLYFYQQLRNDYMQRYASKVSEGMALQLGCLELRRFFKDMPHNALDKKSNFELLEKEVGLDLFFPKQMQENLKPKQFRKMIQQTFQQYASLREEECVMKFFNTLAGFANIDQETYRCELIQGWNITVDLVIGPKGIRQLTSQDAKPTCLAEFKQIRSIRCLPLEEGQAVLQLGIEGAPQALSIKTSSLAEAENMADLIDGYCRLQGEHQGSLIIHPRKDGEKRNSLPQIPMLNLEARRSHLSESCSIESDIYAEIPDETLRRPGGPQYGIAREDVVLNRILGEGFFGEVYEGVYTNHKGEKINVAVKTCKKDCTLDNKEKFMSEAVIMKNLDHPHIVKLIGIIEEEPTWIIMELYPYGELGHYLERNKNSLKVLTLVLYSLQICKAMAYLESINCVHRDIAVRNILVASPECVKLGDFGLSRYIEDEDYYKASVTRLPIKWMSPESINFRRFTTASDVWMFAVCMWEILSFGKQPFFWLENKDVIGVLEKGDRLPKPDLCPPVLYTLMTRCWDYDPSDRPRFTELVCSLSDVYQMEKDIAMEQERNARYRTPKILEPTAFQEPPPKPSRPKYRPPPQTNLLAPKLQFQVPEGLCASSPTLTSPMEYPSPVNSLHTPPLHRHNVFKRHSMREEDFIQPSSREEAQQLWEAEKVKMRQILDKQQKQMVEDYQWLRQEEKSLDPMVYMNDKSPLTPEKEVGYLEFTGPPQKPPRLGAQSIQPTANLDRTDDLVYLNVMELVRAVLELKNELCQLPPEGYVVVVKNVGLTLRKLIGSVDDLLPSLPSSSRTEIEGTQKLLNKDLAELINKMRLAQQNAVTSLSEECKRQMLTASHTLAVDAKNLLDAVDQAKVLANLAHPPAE

Chain of extended human kinome (kinase-like proteins) (Homo sapiens, UniProt P27144) (P27144 whole entry): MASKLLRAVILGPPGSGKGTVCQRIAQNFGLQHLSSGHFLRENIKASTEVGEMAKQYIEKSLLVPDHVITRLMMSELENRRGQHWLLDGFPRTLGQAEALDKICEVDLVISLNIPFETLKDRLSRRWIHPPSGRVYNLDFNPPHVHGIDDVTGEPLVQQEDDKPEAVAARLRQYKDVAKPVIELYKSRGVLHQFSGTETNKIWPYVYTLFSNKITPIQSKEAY
Chain of extended human kinome (kinase-like proteins) (Homo sapiens, UniProt Q9UIJ7) (Q9UIJ7 whole entry): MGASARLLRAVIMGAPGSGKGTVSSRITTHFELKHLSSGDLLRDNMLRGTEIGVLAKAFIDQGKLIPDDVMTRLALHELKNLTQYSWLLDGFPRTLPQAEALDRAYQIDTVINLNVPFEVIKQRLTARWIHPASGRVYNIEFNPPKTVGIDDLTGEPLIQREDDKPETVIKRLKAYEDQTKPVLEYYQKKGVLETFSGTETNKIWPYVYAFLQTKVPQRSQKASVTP
Chain of extended human kinome (kinase-like proteins) (Homo sapiens, UniProt Q16875) (Q16875 whole entry): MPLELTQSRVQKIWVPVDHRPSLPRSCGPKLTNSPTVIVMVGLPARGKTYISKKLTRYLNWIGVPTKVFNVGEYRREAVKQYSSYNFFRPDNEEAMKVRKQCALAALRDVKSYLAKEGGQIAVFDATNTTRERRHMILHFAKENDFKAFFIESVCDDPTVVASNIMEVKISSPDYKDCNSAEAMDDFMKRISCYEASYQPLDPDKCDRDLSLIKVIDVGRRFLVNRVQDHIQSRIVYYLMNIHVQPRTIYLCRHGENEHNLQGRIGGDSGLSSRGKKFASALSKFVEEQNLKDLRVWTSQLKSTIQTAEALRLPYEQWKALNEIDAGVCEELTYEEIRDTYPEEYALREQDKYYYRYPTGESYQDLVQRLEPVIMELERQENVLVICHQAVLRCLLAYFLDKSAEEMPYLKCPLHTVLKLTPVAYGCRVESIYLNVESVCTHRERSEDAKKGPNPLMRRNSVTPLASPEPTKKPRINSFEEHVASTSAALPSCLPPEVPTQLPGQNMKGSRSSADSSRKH

For `CC(C)(C)c1nc(-c2cccc(NS(=O)(=O)c3c(F)cccc3F)c2F)c(-c2ccnc(NCCOCCNC(=O)CCOCCOCCNc3cccc4c3CN(C3CCC(=O)NC3=O)C4=O)n2)s1` (centres unmarked) [DD.03.107], the “logFC AK3 (Q9UIJ7-1)” value was −0.5265 in experiment [1] (experiment wp147, 1 uM); −0.5607 in experiment [1] (experiment wp147, 2 uM); −1.001 in experiment [1] (experiment wp147, 4 uM). In addition, the “logFC AK4 (P27144)” value in experiment [2] (experiment wp137) is reported as −0.3942; in experiment [2] (experiment wp147, 1 uM), −0.3992; in experiment [2] (experiment wp147, 2 uM), −0.4045; in experiment [2] (experiment wp147, 4 uM), −0.898. The “logFC FASTKD1 (Q53R41)” value in experiment [3] (experiment wp147, 1 uM) is −0.58; in experiment [3] (experiment wp147, 2 uM), −0.5044; in experiment [3] (experiment wp147, 4 uM), −0.9447. The “logFC FASTKD5” value in experiment [4] (experiment wp147, 1 uM) is reported as −0.5985; in experiment [4] (experiment wp147, 2 uM), −0.6839; in experiment [4] (experiment wp147, 4 uM) it was −1.268.

Turning to `CC(C)(C)c1nc(-c2cccc(NS(=O)(=O)c3c(F)cccc3F)c2F)c(-c2ccnc(NCCOCCNC(=O)CCOCCOCCNc3cccc4c3C(=O)N(C3CCC(=O)NC3=O)C4=O)n2)s1` (centres unmarked) [DD.03.106], in experiment [1] (experiment wp147, 4 uM), the “logFC AK3 (Q9UIJ7-1)” value is recorded as −0.7202. The “logFC AK4 (P27144)” value in experiment [2] (experiment wp147, 4 uM) is −0.5652. Besides, the “logFC FASTKD1 (Q53R41)” value in experiment [3] (experiment wp147, 4 uM) is on record as −0.6262. In experiment [4] (experiment wp147, 4 uM), the “logFC FASTKD5” value is −0.8688.

`CN(C)C(=O)c1cc2cnc(Nc3ccc(N4CCN(CCCCNC(=O)COc5cccc6c5C(=O)N(C5CCC(=O)NC5=O)C6=O)CC4)cn3)nc2n1C1CCCC1` (centres unmarked) [BSJ.04.132]: in experiment [1] (experiment wp084), the “logFC AK3 (Q9UIJ7-1)” value is listed as −0.6124. In addition, the “logFC AK4 (P27144)” value in experiment [2] (experiment wp084) is −0.6551. The “logFC FASTKD1 (Q53R41)” value in experiment [3] (experiment wp084) is −0.6747. In addition, the “logFC FASTKD5” value in experiment [4] (experiment wp084) is −0.7073.

For `O=C(COc1cccc2c1C(=O)N(C1CCC(=O)NC1=O)C2=O)NCCCCCCCC(=O)NC1(c2ccc(-c3nc4ccn5c(=O)[nH]nc5c4cc3-c3ccccc3)cc2)CCC1` (centres unmarked) [INY.01.140.1], in experiment [1] (experiment wp081), the “logFC AK3 (Q9UIJ7-1)” value is −0.4102. For the same compound, the “logFC AK4 (P27144)” value in experiment [2] (experiment wp081) is given as −0.4309. In addition, in experiment [3] (experiment wp081), the “logFC FASTKD1 (Q53R41)” value was −0.4808. The “logFC FASTKD5” value in experiment [4] (experiment wp081) is −0.4182.

As to `CC(=O)c1c(C)c2cnc(Nc3ccc(N4CCN(CCOCCOCCOCCNC(=O)COc5cccc6c5C(=O)N(C5CCC(=O)NC5=O)C6=O)CC4)cn3)nc2n(C2CCCC2)c1=O` (centres unmarked) [BSJ.03.123], the “logFC AK3 (Q9UIJ7-1)” value in experiment [1] (experiment wp084) is listed as −0.4577. Moreover, the “logFC AK4 (P27144)” value in experiment [2] (experiment wp084) was −0.5103. In addition, the “logFC FASTKD1 (Q53R41)” value in experiment [3] (experiment wp084) is recorded as −0.5242. Also, the “logFC FASTKD5” value in experiment [4] (experiment wp084) is −0.5926.

For the compound `CC(C)S(=O)(=O)c1ccccc1Nc1nc(Nc2ccc(N3CCN(CCOCCNC(=O)CNc4cccc5c4C(=O)N(C4CCC(=O)NC4=O)C5=O)CC3)cc2)ncc1Cl` (centres unmarked) [SK.3.91], the “logFC AK3 (Q9UIJ7-1)” value in experiment [1] (experiment wp160, 1 hr) is recorded as −0.7434. In experiment [2] (experiment wp160, 1 hr), the “logFC AK4 (P27144)” value was −0.8232. Besides, the “logFC FASTKD1 (Q53R41)” value in experiment [3] (experiment wp160, 1 hr) is listed as −0.8675. Besides, the “logFC PFKFB3” value in experiment [5] (2 hr) is −0.3539; in experiment [5] (4 hr) it was −0.6035. The “logFC FASTKD5” value in experiment [4] (experiment wp160, 1 hr) is −0.8306. Moreover, the logFC is −3.603 in experiment [6] (1 uM); −0.8056 and −1.043 in experiment [6] (1 hr); −2.027 and −2.105 in experiment [6] (2 hr). Besides, the “logFC PTK2B” value in experiment [6] (experiment wp016, 1 uM) is given as −3.603; in experiment [6] (experiment wp016), −3.824; in experiment [6] (experiment wp114), −1.885; in experiment [6] (experiment wp133, 1 hr) it was −0.8056; in experiment [6] (experiment wp133, 2 hr) it was −2.027; in experiment [6] (experiment wp133, 4 hr), −3.96. The “logFC PTK2B” value in experiment [6] (experiment wp160, 1 hr) is recorded as −1.043; in experiment [6] (experiment wp160, 2 hr), −2.105; in experiment [6] (experiment wp160, 4 hr), −2.773.
